Assay results as given in US20050227302A1, “Induction of apoptosis via ARTS-IAP complexes” (priority 2004, published 2005).

Experiments:
XIAP [1] = assay: Co-immunoprecipitation of ARTS-XIAP complexes in NRP154 cells; format: cell-based, rat
Protocol: (§1) Protein extracts were prepared with lysis buffer (150 mM NaCl, 50 mM Tris-HCl (pH 8), 1% NP-40, 0.5% deoxycholate acid) with protease inhibitors. Lysates containing equal amounts of total protein were pre-cleared overnight with 1 mg mouse IgG (Sigma) coupled with protein A/G-Sepharose mix (Amersham Biosciences) and the beads centrifuged. Supernatants were immuno-precipitated using 5 μl of anti-ARTS antibody for 4 h, anti-XIAP antibody, rabbit anti-myc antibody, or mouse IgG (negative control). Protein A/G Sepharose beads were added for 1 hour and washed four times with PBS. Antibodies against XIAP (as above), Myc (Santa Cruz), or anti-ARTS (NT) antibodies directed against the common N′ terminus of ARTS and H5 (ProSci Incorporated) were used for Western blot.

COS-7 cells [2] = assay: Immunofluorescence of ARTS and XIAP localization in COS-7 cells; format: cell-based, African Green Monkey; settings: for ARTS and XIAP co-localization: COS-7 cells transfected with AU5-ARTS and pcDNA3-Myc-XIAP, 100 mM etoposide
Protocol: Cells were fixed with 4% paraformaldehyde in PBS for 20 min at room temperature, washed with PBS, permeabilized with 0.5% Triton-X in PBS for 5 min, and incubated with primary antibodies for 2 hours at room temperature (rabbit polyclonal anti-ARTS (1:20,000; Sigma), monoclonal anti-ARTS, and/or monoclonal anti-XIAP (1:500; used in subsequent Examples). Cells were washed three times with PBS/0.1% Triton-X and incubated with FITC conjugated anti-mouse and Rhodamin^TX-conjugated anti-rabbit secondary antibodies (Jackson). Images were analyzed using a confocal laser microscope (Zeiss LSM 510). Mitochondria were visualized with MitoTracker® Red CMXRos (Molecular Probes/Invitrogen).
For caspase inhibition, we added […] of BOC-Asp(Ome)CH2F (Enzyme Systems Products) one hour prior to addition of the apoptotic agents.

ARTS = assay: Cell fractionation, ARTS levels in sub-cellular fractions; format: cell-based; settings: treated with staurosporine (STS) for 1 hour
Protocol: Cells were homogenized in 20 mM HEPES-KOH, pH 7.5, 10 mM KCl, 1.5 mM MgCl2, 1 mM sodium EDTA, 1 mM sodium EGTA, and 1 mM dithiothreitol in the presence of 250 mM sucrose and protease inhibitors. Homogenates were centrifuged at 500×g for 5 min at 4° C., and the supernatant was centrifuged at 10,000×g for 20 min to obtain mitochondria. The pellet was washed and solubilized in TNC buffer (10 mM Tris acetate, pH 8.0, 0.5% Nonidet P-40 (NP-40), 5 mM CaCl2) with protease inhibitors. Protein concentration was determined with a Micro-BCA kit (Pierce).

XIAP [3] = assay: Co-immunoprecipitation of ARTS-XIAP complexes in COS-7 cells; format: cell-based, African Green Monkey
Protocol: as §1

COS-7 cells [4] = assay: Apoptosis assays (TUNEL, anti-H2A.X) in COS-7 cells; format: cell-based, African Green Monkey; design: induction of apoptosis (TUNEL): dose or concentration left out as unconfirmed; settings: transiently transfected COS-7 cells, staurosporine (STS) for 1 or 3 hours
Protocol: Apoptotic cells were detected using the anti-H2A.X antibody (Upstate; Paull, et al., 2000) or TUNEL. For TUNEL assays, COS-7 cells were transiently transfected with AU5-ARTS, AU5-ARTSΔC, AU5-ARTSmGTP and AU5-H5. Twenty-four hours after transfection, the cells were treated with staurosporine (STS) ([…]) for 1 or 3 hours, then fixed and permeabilized. Apoptosis levels were determined using the TUNEL. In situ™ cell death detection TMR kit (Roche) according to the manufacturer's protocol. All slides were coded and experiments were performed in a blind manner.
Stably transfected COS-7 pE-ARTS cells were generated using the pEF1-IRES vector (Hobbs S et al, Biochem Biophys Res Commun 252: 368-372, 1998). The construct contains an EF-1 promoter followed by a multi cloning site, an EMC (Encephalomyocarditis virus) internal ribosome entry sites (IRES), and a puromycin resistance gene. AU5-tagged ARTS was inserted into the XhoI site downstream of the EF-1 promoter. The construct was stably transfected into COS-7 cells. The cells were maintained in medium containing 4 μg/ml puromycin.

XIAP [5] = target: T1, XIAP (Homo sapiens, UniProt P98170); assay: GST pull-down assay of ARTS and XIAP; format: binding; settings: lysates of COS-7 cells transfected with AU5-tagged construct; Western blot anti-AU5
T1 construct: made in house; host or cells: bacteria (pGEX-XIAP plasmid obtained from Dr. Colin S. Duckett)
Excerpt: For the glutathione-S-transferase (GST)-pull down assays, ARTS was subcloned into the pGEX 4T™ (Pharmacia Biotech) construct; GST-ARTS fusion protein was generated by Polymerase Chain Reaction (PCR) using the following primers: • BamHI-5′-[…]-3′ (SEQ ID No: 4) and • EcoRI-5′ […]-3′ (SEQ ID No: 5) and cloned into BamHI and EcoRI sites in pGEX 4T. Preparation of Beads
For in vitro binding studies, recombinant GST-ARTS or GST-XIAP fusion proteins were purified from bacteria. After sonication, 0.1% Triton X-100 and protease inhibitors (Mini-Complete™, Roche) were added to the bacterial extract followed by 10,000 rotations per minute (RPM) centrifugation. Supernatants of bacterial extracts were collected and incubated in the presence of glutathione-Sepharose 4B beads (Amersham Biosciences) for 30 minute at 4° C. The beads were washed three times.
Cells were lysed in RIPA buffer (150 mM NaCl, 50 mM Tris-HCl (pH 8), 1% NP-40, 0.1% SDS, 0.5% deoxycholate acid containing protease inhibitors (mini Complete, Roche)). Samples were divided into two tubes; one was rotated for 4 h at 4° C. with GST-ARTS fusion protein coupled with the glutathione beads, or GST-XIAP fusion protein. The second tube was incubated with glutathione beads alone (negative control). Samples were centrifuged at 4000-RPM at 4° C. for 4 minute and washed five times in lysis buffer, then boiled in sample buffer for 5 minutes to elute bound proteins Proteins were separated on 12.5% SDS-PAGE gel followed by Western blot analysis using monoclonal anti-ARTS antibody (Sigma), monoclonal anti-XIAP antibody (BD Transduction Laboratories) or monoclonal anti-myc antibody (Clontech).

[6] = Larisch S et al, Nat Cell Biol 2: 915-921, 2000; cited from earlier work

T1 sequence (P98170 whole entry): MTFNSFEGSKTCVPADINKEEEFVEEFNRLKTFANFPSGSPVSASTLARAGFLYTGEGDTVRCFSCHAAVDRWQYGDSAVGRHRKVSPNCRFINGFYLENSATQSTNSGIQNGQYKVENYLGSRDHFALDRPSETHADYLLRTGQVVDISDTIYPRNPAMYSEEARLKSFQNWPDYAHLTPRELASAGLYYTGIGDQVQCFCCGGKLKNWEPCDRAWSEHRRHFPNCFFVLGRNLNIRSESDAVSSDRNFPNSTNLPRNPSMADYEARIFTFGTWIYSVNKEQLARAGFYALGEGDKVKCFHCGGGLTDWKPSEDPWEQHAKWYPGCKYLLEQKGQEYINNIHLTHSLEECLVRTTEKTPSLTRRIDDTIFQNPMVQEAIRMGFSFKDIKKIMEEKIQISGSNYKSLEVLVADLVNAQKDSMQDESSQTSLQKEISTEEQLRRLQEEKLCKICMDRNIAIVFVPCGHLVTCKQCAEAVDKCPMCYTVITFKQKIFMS

Question: Which ARTS-XIAP complexes (XIAP [1]; 6 hours of etoposide treatment (100 μM)) does the source give for `COc1cc([C@@H]2c3cc4c(cc3[C@@H](O[C@@H]3O[C@@H]5CO[C@@H](C)O[C@H]5[C@H](O)[C@H]3O)[C@H]3COC(=O)[C@H]23)OCO4)cc(OC)c1O` [etoposide] here?
Answer: Its ARTS-XIAP complexes is “increased further”.

Question: And the ARTS-XIAP complexes (XIAP [1]; three hours of etoposide treatment (100 μM))?
Answer: The ARTS-XIAP complexes was “a large number of ARTS-XIAP complexes were detected”.

Question: And the ARTS localization (COS-7 cells [2]; ARTS-transfected COS-7 cells treated with etoposide, absence of caspase inhibitors)?
Answer: Its ARTS localization is “accumulated ARTS in the nucleus”.

Question: And the “ARTS and XIAP co-localization” value (COS-7 cells [2]; 2 hours)?
Answer: The value was “extensive overlap between ARTS and XIAP staining”.

Question: And the “ARTS and XIAP co-localization” value (COS-7 cells [2]; 16 hours)?
Answer: The value was “most of the staining for both proteins was confined to the nucleus”.

Question: What does the source list for `CN[C@@H]1C[C@H]2O[C@@](C)([C@@H]1OC)n1c3ccccc3c3c4c(c5c6ccccc6n2c5c31)C(=O)NC4` [staurosporine, reference compound]?
Answer: ARTS levels in the cytosol (ARTS): strongly increased; ARTS-XIAP binding (XIAP [3]; COS-7 cells, endogenous proteins, three hours of incubation with staurosporine): significant increase in ARTS-XIAP binding

B1: ARTSΔC: ARTS construct that lacks 68 amino acids at the unique ARTS C′-terminal sequence (protein)
chain: MIKRFLEDTTDDGELSKFVKDFSGNASCHPPEAKTWASRPQVPEPRPQAPDLYDDDLEFRPPSRPQSSDNQQYFCAPAPLSPSARPRSPWGKLDPYDSSEDDKEYVGFATLPNQVHRKSVKKGFDFTLMVAGESGLGKSTLVNSLFLTDLYRDRKLLGAEERIMQTVEITKHAVDIEEKGVRLRLTIVDTPGFGDAVNNTECWKPV
modifications: left off: small tags and cut ends
Question: What does the source list for B1?
Answer: induction of apoptosis (TUNEL) (COS-7 cells [4]): did not induce apoptosis; binding to GST-XIAP (XIAP [5]): Neither ARTSΔC nor H5 were able to bind to XIAP

B2: H5: H5 septin protein derived by differential splicing from the same locus as ARTS; considerably larger protein (protein)
chain: MDRSLGWQGNSVPEDRTEAGIKRFLEDTTDDGELSKFVKDFSGNASCHPPEAKTWASRPQVPEPRPQAPDLYDDDLEFRPPSRPQSSDNQQYFCAPAPLSPSARPRSPWGKLDPYDSSEDDKEYVGFATLPNQVHRKSVKKGFDFTLMVAGESGLGKSTLVNSLFLTDLYRDRKLLGAEERIMQTVEITKHAVDIEEKGVRLRLTIVDTPGFGDAVNNTECWKPVAEYIDQQFEQYFRDESGLNRKNIQDNRVHCCLYFISPFGHGLRPLDVEFMKALHQRVNIVPILAKADTLTPPEVDHKKRKIREEIEHFGIKIYQFPDCDSDEDEDFKLQDQALKESIPFAVIGSNTVVEARGRRVRGRLYPWGIVEVENPGHCDFVKLRTMLVRTHMQDLKDVTRETHYENYRAQCIQSMTRLVVKERNRNKLTRESGTDFPIPAVPPGTDPETEKLIREKDEELRRMQEMLHKIQKQMKENY
modifications: left off: small tags and cut ends
Question: Which pro-apoptotic activity [6] does the source give for B2 here?
Answer: Its pro-apoptotic activity is “lacks pro-apoptotic activity”.

Question: And the “binding to GST-XIAP” value (XIAP [5])?
Answer: Its value is “Neither ARTSΔC nor H5 were able to bind to XIAP”.

Question: What about the “binding to XIAP in co-IP” value (XIAP [3]; COS-7 cells co-transfected with pcDNA-mycXIAP and AU5-tagged construct) of the same molecule?
Answer: Its value is “Neither of these mutants bound to XIAP”.
